Results on 14 molecules are retold here after ChEMBL document CHEMBL1201862, “PubChem BioAssay data set” (2004).

Molecules are shown by their SMILES.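 Exposure lasted 48 hours, with cells grown in 96-well plates and compounds tested at five concentrations. GI50 marks 50% less growth.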 Active and inactive are the calls of the source. Cut-off read from the data, not from the text of the source: active = GI50 up to about 1.1 µM and inactive = higher.

Some test systems named below: SR; T47D; SK-MEL-28; DU-145; HL-60; PC-3; SNB-75; MDA-MB-435; RXF 393; SF-268; NCI-H460; OVCAR-8; MDA-MB-231; UO-31; HT-29; LOX IMVI.
Holding throughout (assay): NCI-60 cell line screen, 48 h

With `Cc1sc(N)c(S(=O)(=O)c2ccccc2)c1C`, the GI50 with SR, in the experiment on T47D, in the experiment on SK-MEL-28, with DU-145, in the experiment on HL-60 and with PC-3 was > 100 µM (inactive) throughout. Also, the GI50 in the experiment with SNB-75, in the experiment with MDA-MB-435, in the experiment with RXF 393, in the experiment with SF-268, in the experiment on NCI-H460 and in the experiment on OVCAR-8 was > 100 µM (inactive) each time. In addition, the GI50 in the experiment with MDA-MB-231, in the experiment with UO-31 and in the experiment on HT-29 was > 100 µM (inactive) throughout.
In the case of `CCOC(=O)/C(=N/Nc1ccc(Cl)cc1)N1C(=S)N(C)N=C(C)C=C1S`, the GI50 is > 100 µM (inactive) with SR; 29.8 µM (inactive) in the experiment on T47D; > 100 µM (inactive) in the experiment with SK-MEL-28; > 100 µM (inactive) with DU-145; > 100 µM (inactive) in the experiment on HL-60; 24.2 µM (inactive) in the experiment with SNB-75. In addition, the GI50 was > 100 µM (inactive) in the experiment on MDA-MB-435; 11.7 µM (inactive) with RXF 393; 29.9 µM (inactive) with SF-268; 26.7 µM (inactive) in the experiment on NCI-H460; 23.7 µM (inactive) in the experiment on OVCAR-8; 29 µM (inactive) in the experiment with MDA-MB-231. The GI50 with UO-31 and in the experiment with HT-29 was > 100 µM (inactive) in each case.
On to `COc1ccc(-n2cnn3c(=O)c4cn[nH]c4nc23)cc1`, for which the GI50 in the experiment with SR, with LOX IMVI, with DU-145, in the experiment with HL-60, in the experiment on PC-3 and in the experiment on SNB-75 was > 10 µM (inactive) each time. The GI50 was > 10 µM (inactive) in the experiment on MDA-MB-435; > 10 µM (inactive) in the experiment with SF-268; > 10 µM (inactive) in the experiment on NCI-H460; > 10 µM (inactive) in the experiment with OVCAR-8; 0.00724 µM (active) in the experiment on MDA-MB-231; > 10 µM (inactive) in the experiment with UO-31. In addition, in the experiment on HT-29, the GI50 is > 10 µM (inactive).
Turning to `CN(C)CCCCN1CCc2c(n(C)c3ccccc23)C1=O`, the GI50 in the experiment on LOX IMVI was 19.4 µM (inactive); in the experiment on T47D it was 25.5 µM (inactive); with SK-MEL-28, 16.7 µM (inactive); in the experiment on HL-60, 51.4 µM (inactive); with SNB-75, 22.3 µM (inactive); in the experiment on MDA-MB-435, 18.5 µM (inactive). For the same molecule, the GI50 with RXF 393 is 42.1 µM (inactive); in the experiment with SF-268, 31.3 µM (inactive); with OVCAR-8, > 80.4 µM (inactive); in the experiment on MDA-MB-231, 29.5 µM (inactive); in the experiment with UO-31 it was 30.9 µM (inactive); in the experiment on HT-29, 18.7 µM (inactive).
Regarding `Cc1ccc2c3c4c(ccc13)C(C)(C)OC4=C(C(C)C)C2=O`, the GI50 with T47D is 53.5 µM (inactive); in the experiment with SK-MEL-28, 91.6 µM (inactive); in the experiment with DU-145 it was > 100 µM (inactive); with HL-60, 16.6 µM (inactive); in the experiment on PC-3, 14.5 µM (inactive); in the experiment on SNB-75, 26.4 µM (inactive). For the same molecule, the GI50 in the experiment on MDA-MB-435 is 59.7 µM (inactive); in the experiment with RXF 393 it was 17.4 µM (inactive); with SF-268 it was 34.7 µM (inactive); in the experiment with NCI-H460 it was 31.8 µM (inactive); in the experiment on OVCAR-8, 44.7 µM (inactive); with MDA-MB-231, > 100 µM (inactive). Moreover, the GI50 with UO-31 is > 100 µM (inactive); in the experiment on HT-29, 13.8 µM (inactive).
As to `CCCCCCCNC(P(=O)(O)O)P(=O)(O)O`, the GI50 with SR, in the experiment with LOX IMVI, with T47D, in the experiment on SK-MEL-28, in the experiment with DU-145 and in the experiment with HL-60 was > 100 µM (inactive) throughout. The GI50 was > 100 µM (inactive) in the experiment with PC-3; 8.2 µM (inactive) in the experiment on SNB-75; > 100 µM (inactive) in the experiment with MDA-MB-435; > 100 µM (inactive) in the experiment on SF-268; > 100 µM (inactive) in the experiment on NCI-H460; > 100 µM (inactive) with OVCAR-8. The GI50 in the experiment on MDA-MB-231 is > 100 µM (inactive); in the experiment with UO-31 it was > 100 µM (inactive); with HT-29, 54.7 µM (inactive).
Consider `O=c1cc(N2CCCC2)[nH]c(=O)n1-c1cccc(C(F)(F)F)c1`, for which the GI50 in the experiment on LOX IMVI, in the experiment with T47D, in the experiment with DU-145, in the experiment on HL-60, with PC-3 and in the experiment with SNB-75 was > 100 µM (inactive) throughout. Further, the GI50 in the experiment on MDA-MB-435, in the experiment on RXF 393, in the experiment with SF-268, in the experiment on NCI-H460, in the experiment on OVCAR-8 and with MDA-MB-231 was > 100 µM (inactive) in each case. Also, the GI50 in the experiment with HT-29 is > 100 µM (inactive).
Take `COC(O)C(=O)c1ccc2c(c1)CC1(C2)Cc2cc3c(cc2C1=O)CCC3` (stereo unspecified): the GI50 is > 10 µM (inactive) in the experiment on SR; 2.69 µM (inactive) in the experiment on LOX IMVI; 19.2 µM (inactive) in the experiment on T47D; 15.1 µM (inactive) with SK-MEL-28; 17.1 µM (inactive) in the experiment on DU-145; 9.33 µM (inactive) in the experiment with HL-60. The GI50 in the experiment with PC-3 is 14.9 µM (inactive); in the experiment on SNB-75 it was 17.9 µM (inactive); in the experiment with MDA-MB-435, 17.1 µM (inactive); in the experiment on SF-268, 19.4 µM (inactive); in the experiment with NCI-H460, 27.9 µM (inactive); with OVCAR-8, > 10 µM (inactive). Moreover, the figures for the GI50 in the experiment with MDA-MB-231, in the experiment on UO-31 and with HT-29 were 27.7 µM (inactive), 16.9 µM (inactive) and 20.1 µM (inactive), respectively.
`CC1CNC(NS(=O)(=O)c2cc(C(=O)Nc3ccc(F)cc3)c(Cl)cc2S)=NN1` (stereo unspecified): the GI50 with SR was 43.5 µM (inactive); in the experiment with LOX IMVI it was 54.5 µM (inactive); in the experiment on SK-MEL-28 it was 56.2 µM (inactive); in the experiment with DU-145, > 100 µM (inactive); in the experiment with HL-60, > 100 µM (inactive); with PC-3, 30.3 µM (inactive). Moreover, the GI50 in the experiment with MDA-MB-435 is 35.7 µM (inactive); in the experiment with SF-268, 50.4 µM (inactive); in the experiment with NCI-H460, 78.5 µM (inactive); in the experiment on OVCAR-8 it was 73.8 µM (inactive); in the experiment on MDA-MB-231 it was 82.2 µM (inactive); in the experiment with UO-31, > 100 µM (inactive). The GI50 with HT-29 is 51.4 µM (inactive).
As to `COC(=O)c1c(-c2ccccc2)c2sc3ccccc3n2c1N`, the GI50 is 76.2 µM (inactive) with SR; 17.3 µM (inactive) with LOX IMVI; 20.8 µM (inactive) with T47D; 66.1 µM (inactive) in the experiment on SK-MEL-28; 57.5 µM (inactive) in the experiment with DU-145; 31.1 µM (inactive) with PC-3. Moreover, the GI50 was 56.1 µM (inactive) with SNB-75; 81.7 µM (inactive) in the experiment with MDA-MB-435; 19.4 µM (inactive) in the experiment with RXF 393; 44 µM (inactive) in the experiment on SF-268; 40.2 µM (inactive) in the experiment on NCI-H460; 58.3 µM (inactive) in the experiment with OVCAR-8. Further, the GI50 with MDA-MB-231 was 87.1 µM (inactive); in the experiment with UO-31, 85.9 µM (inactive); with HT-29, 49.7 µM (inactive).
Take `N#Cc1cc2c(cc1C#N)/C(=N\c1cccc(N)n1)N/C2=N\c1cccc(N)n1`: the GI50 is 4.85 µM (inactive) in the experiment with SR; 18.8 µM (inactive) in the experiment on LOX IMVI; 21.8 µM (inactive) with T47D; 18.8 µM (inactive) in the experiment on SK-MEL-28; > 100 µM (inactive) in the experiment with DU-145; 19.1 µM (inactive) in the experiment with HL-60. In addition, the GI50 in the experiment with PC-3 was 17.9 µM (inactive); with SNB-75, 15.6 µM (inactive); in the experiment with MDA-MB-435, 19.1 µM (inactive); with SF-268, 15.1 µM (inactive); with NCI-H460, 22.4 µM (inactive); in the experiment on OVCAR-8, 23.6 µM (inactive). In addition, the GI50 in the experiment with MDA-MB-231 was 15.2 µM (inactive); in the experiment with UO-31, 15.7 µM (inactive); in the experiment with HT-29 it was 23.1 µM (inactive).
Regarding `O=C(O)c1nc2ccc(C(F)(F)F)cc2[nH]c1=O`, the GI50 in the experiment on SR, with LOX IMVI, in the experiment with T47D, in the experiment on SK-MEL-28, in the experiment with DU-145 and in the experiment on HL-60 was > 100 µM (inactive) throughout. Further, the GI50 with PC-3, in the experiment with MDA-MB-435, in the experiment on RXF 393, with SF-268, in the experiment with NCI-H460 and in the experiment on OVCAR-8 was > 100 µM (inactive) throughout. The GI50 in the experiment on MDA-MB-231, in the experiment on UO-31 and in the experiment on HT-29 was > 100 µM (inactive) in each case.
In the case of `COC(=O)C1=C(C(=O)OC)C(N(C)C)C(C(=O)OC)=C(C(=O)OC)S1`, the GI50 with SR, in the experiment with LOX IMVI, in the experiment with T47D, with SK-MEL-28, in the experiment with DU-145 and in the experiment with PC-3 was > 100 µM (inactive) in each case. Moreover, the GI50 was > 100 µM (inactive) in the experiment on SNB-75; > 100 µM (inactive) with MDA-MB-435; > 100 µM (inactive) with RXF 393; > 100 µM (inactive) in the experiment on SF-268; 57.1 µM (inactive) with NCI-H460; > 100 µM (inactive) in the experiment with OVCAR-8. Also, the GI50 with MDA-MB-231 and in the experiment with UO-31 was > 100 µM (inactive) in each case.
On to `COC(=O)CC1(CNC(=O)OCc2ccccc2)OCCO1`, for which the GI50 in the experiment on SR, with LOX IMVI, with SK-MEL-28, in the experiment with DU-145, in the experiment with HL-60 and in the experiment on PC-3 was > 100 µM (inactive) each time. Moreover, the GI50 in the experiment with SNB-75, in the experiment with MDA-MB-435, in the experiment with RXF 393, in the experiment with NCI-H460, with OVCAR-8 and with MDA-MB-231 was > 100 µM (inactive) in each case. For the same molecule, in the experiment with UO-31, the GI50 was > 100 µM (inactive).
